Experiments:
[1] = test system: glutamate and GABA concentrations in brain; assay: glutamate and GABA concentrations in hippocampus and cortex of PTZ-kindled mice; type: in vivo, mouse
Excerpt: After behavioral tests (FST, PTZ-induced kindling), we determined the changes in glutamate and GABA concentrations in the hippocampus and cortex. Since exposure to the FST can evoke various neurochemical alterations, two additional groups were employed in this experiment, i.e., control nonkindled mice that were exposed to the FST and naïve mice. No marked differences in both glutamate and GABA concentrations in the hippocampus were observed (Figure 5A). […] We found a significant increase in glutamate concentration in the cortex of mice subjected to the FST (p < 0.05 vs naive mice). […] Given that seizures are typically accompanied by elevated extracellular glutamate levels (an excitatory neurotransmitter), a decreased glutamate concentration in the cortex of kindled animals may appear to be an unexpected outcome. It should be highlighted, however, that the concentrations of glutamate and GABA in tissue homogenates rather than dialysate were measured in brain samples acquired 24 h following the previous PTZ dose, which may have an impact on the outcomes. On the other hand, decreased glutamate levels could be caused by the up-regulation of glutamate transporters, as the expression of glutamate transporters can increase following seizures.[48] For example, an increased expression of hippocampal GLT-1 was observed 24 h after kainic acid-induced status epilepticus in mice and PTZ-induced kindling in rats.[49] Moreover, similar to our findings, Szyndler et al.([50]) found decreased glutamate concentrations, with no changes in GABA concentrations, in homogenates of the hippocampus, striatum, and prefrontal cortex of PTZ-kindled rats.
Figure 5 Changes in glutamate and GABA concentrations in the hippocampus (A) and cortex (B). Data are shown as means + SD (n = 9–14 animals). Statistical significance was evaluated by one-way ANOVA followed by Tukey’s post hoc test: *p < 0.05, **p < 0.01, ***p < 0.001 (GraphPad Prism 8.4.3).
GABA and glutamate concentrations were determined using liquid chromatography tandem mass spectrometry (LC-MS/MS) in the mouse prefrontal cortex and hippocampus. Toronto Research Chemicals Inc. was the source of the standards for both analytes (Toronto, ON, Canada). GABA and glutamate stock standard solutions were made in methanol and deionized water, respectively, and kept cold at 4 °C. The stock solutions were suitably diluted to create a range of solution combinations with the appropriate concentrations. Prior to analysis, a hand-held pestle and glass tube homogenizer (Potter–Elvehjem PTFE pestle and glass tube, Sigma-Aldrich, St. Louis, MO, USA) were used to homogenize mouse brains in distilled water at a ratio of 50 μL/mg. Following a 10 min centrifugation at 8000g for 10 min at 4 °C, homogenates were diluted 10 times with 0.1% formic acid in MeCN from the supernatant. Samples (10 μL) were deproteinized with 80 μL of 0.1% formic acid in MeCN by shaking for 10 min (IKA Vibrax VXR, IKA Werke GmbH & Co. KG, Staufen im Breisgau, Germany) and centrifuged for 5 min at the speed of 8000g (Eppendorf miniSpin centrifuge) after isotope-labeled GABA-d6 and glutamate-d5 (Toronto Research Chemicals Inc., Toronto, ON, Canada) were added as internal standards (10 μL at the concentration of 500 ng/mL). The autosampler vials were filled with the acquired supernatants. […]

[2] = PAMPA (Precoated PAMPA Plate System Gentest) passive permeability; type: in vitro ADME
[3] = test system: REDs in the medial entorhinal cortex of brain slices from kainate-treated rats; assay: spontaneous recurrent epileptiform discharges (REDs) in brain slices of KA-rats; set-up: species or system rat; details: 40, 80 and 120 μM, 20 min bath exposure
Procedure: The effects of (R)-32 on spontaneous recurrent epileptiform discharges (REDs) recorded in the medial entorhinal cortex of a brain slices obtained from rats that had previously experienced kainate-induced status epilepticus (KA-rats) were evaluated at 40, 80, and 120 μM. […] Finally, the average duration, frequency, and amplitude of REDs after a 20 min exposure, and normalized to baseline measurements, is illustrated in Figure 4C for 40, 80, and 120 μM (R)-32. […] Accordingly, no EC50 quantifications were performed.
Figure 4 (R)-32 fails to affect REDs (recurrent epileptiform discharges) at any concentrations tested. (A) Representative traces of REDs recorded before (baseline), in the presence of 80 μM (R)-32, and 20 min after washout. […]
Evaluation of spontaneous recurrent electrographic discharges (REDs) from the medial entorhinal cortex in acute brain slices obtained from Sprague–Dawley rats that had previously experienced kainate-induced status epilepticus (KA-rats) were performed as previously described (West et al., 2018).[90] […] Extracellular field excitatory postsynaptic potentials (fEPSPs) were then recorded from layer II of the medial entorhinal cortex from 8 brain slices simultaneously. Spontaneous REDs were recorded for a 20 min baseline period. […] Data were acquired using pClamp 10.4.2 and analyzed using the included clampfit 10.4 software. […]

[4] = test system: HepG2 cell line; assay: hepatotoxicity, HepG2 cell viability; type: cell-based, human; details: 25 μM, 72 h of incubation (Figure 11)
Procedure: The hepatotoxicity potential was assessed with the HepG2 cell line and the reference cytostatic drug doxorubicin.
The results are presented as means + SD. Statistical significance was evaluated by one-way ANOVA, followed by Bonferroni’s multiple comparison post hoc test (Graph Pad Prism 8.0.1 software, San Diego, CA, USA): *p < 0.05, ***p < 0.001, ****p < 0.0001 vs negative control (DMSO 1% in growth media).

With `CC(=O)N[C@@H](C(=O)N1CCN(c2cccc(OC(F)(F)F)c2)CC1)c1ccccc1` [(R)-32, (R)-N-(2-Oxo-1-phenyl-2-(4-(3-(trifluoromethoxy)phenyl)piperazin-1-yl)ethyl)acetamide] the “GABA concentration in the cortex” value ([1]; 80 mg/kg, p < 0.001 vs PTZ-kindled control group) was “significantly decreased”, the “glutamate concentration in the cortex (PTZ-kindling-induced decrease)” value ([1]; 80 mg/kg, p < 0.01 vs PTZ-kindled control group) was “reversed this effect” and the “glutamate concentration in the hippocampus” value ([1]; vs nonkindled FST control group) was “slight decrease”. The “Pe relative to that of caffeine” value [2] was “approximately 70%”, the Papp ([2]; passive blood–brain barrier permeability model, read-out: permeability coefficient (Pe)) was 2.42 ×10⁻⁶ cm/s and the “effect on RED parameters (duration, frequency, amplitude)” value [3] was “failed to significantly affect”.

In the case of `CC(=O)N[C@@H](C(=O)N1CCN(c2cccc(SC(F)(F)F)c2)CC1)c1ccccc1` [(R)-33, (R)-N-(2-Oxo-1-phenyl-2-(4-(3-((trifluoromethyl)thio)phenyl)piperazin-1-yl)ethyl)acetamide], the HepG2 cell viability [4] is reported as “reduced slightly, but statistically significant cell viability”.
